Data published in ChEMBL document CHEMBL1138171, “5-Heteroatom-substituted pyrazoles as canine COX-2 inhibitors: Part 2. Structure-activity relationship studies of 5-alkylethers and 5-thioethers” (Bioorg Med Chem Lett, 2006).

Assays:
[1] = target: T1, Cyclooxygenase-2 (Canis lupus familiaris, UniProt Q8SPQ9)
T1 sequence (Q8SPQ9 whole entry): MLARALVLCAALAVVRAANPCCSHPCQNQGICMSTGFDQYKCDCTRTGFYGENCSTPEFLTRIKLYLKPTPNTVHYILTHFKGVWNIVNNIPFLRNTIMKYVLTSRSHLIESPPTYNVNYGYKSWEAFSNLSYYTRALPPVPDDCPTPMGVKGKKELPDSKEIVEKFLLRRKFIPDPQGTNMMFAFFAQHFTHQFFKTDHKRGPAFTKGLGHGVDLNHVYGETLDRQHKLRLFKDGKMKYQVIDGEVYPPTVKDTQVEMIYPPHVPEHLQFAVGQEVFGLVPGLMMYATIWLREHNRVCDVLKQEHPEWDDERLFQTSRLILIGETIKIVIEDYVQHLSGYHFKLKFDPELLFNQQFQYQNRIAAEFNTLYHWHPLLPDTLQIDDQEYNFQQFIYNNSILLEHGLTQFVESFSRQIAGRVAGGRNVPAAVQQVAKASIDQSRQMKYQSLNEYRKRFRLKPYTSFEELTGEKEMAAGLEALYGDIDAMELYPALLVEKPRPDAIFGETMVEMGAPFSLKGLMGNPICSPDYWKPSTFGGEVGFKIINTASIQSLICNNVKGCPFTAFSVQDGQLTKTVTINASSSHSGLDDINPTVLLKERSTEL
Description: Inhibition of COX2 by canine whole blood assay

[2] = target: T2, Prostaglandin G/H synthase 1 (Canis lupus familiaris, UniProt Q8HZR1); assay: Inhibition of COX1 by canine whole blood assay; assay type: tissue-based
T2 sequence (Q8HZR1 whole entry): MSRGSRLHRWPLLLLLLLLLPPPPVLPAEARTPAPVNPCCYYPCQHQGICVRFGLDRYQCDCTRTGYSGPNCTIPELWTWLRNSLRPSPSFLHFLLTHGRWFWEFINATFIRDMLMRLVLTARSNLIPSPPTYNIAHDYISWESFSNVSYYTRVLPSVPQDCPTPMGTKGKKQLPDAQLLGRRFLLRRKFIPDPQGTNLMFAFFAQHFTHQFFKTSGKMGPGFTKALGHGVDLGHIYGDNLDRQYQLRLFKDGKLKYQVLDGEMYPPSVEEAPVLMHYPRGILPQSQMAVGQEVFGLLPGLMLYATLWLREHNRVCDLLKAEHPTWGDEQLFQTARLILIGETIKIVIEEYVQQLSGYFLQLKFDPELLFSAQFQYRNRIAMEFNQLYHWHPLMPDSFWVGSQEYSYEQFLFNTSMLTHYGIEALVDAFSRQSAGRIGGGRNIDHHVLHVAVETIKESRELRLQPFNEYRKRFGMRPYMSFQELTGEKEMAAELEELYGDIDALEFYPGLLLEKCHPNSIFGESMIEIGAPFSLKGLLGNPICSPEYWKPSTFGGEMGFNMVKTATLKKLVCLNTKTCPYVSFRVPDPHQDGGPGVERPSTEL

[3] = species: Canis lupus familiaris; assay: Selectivity for COX1 over COX2 by canine whole blood assay
[4] = test system: Canis familiaris; assay: AUC in Beagle dog at 2 mg/kg, po; assay type: ADME, organism-based, Canis lupus familiaris, Plasma; design: dose 2 mg/kg, route oral; conditions: in vivo
[5] = species: Canis familiaris; conditions: dog, in vivo, po, 5 mg/kg
Description: AUC in Beagle dog at 5 mg/kg, po

[6] = Tmax in Beagle dog at 5 mg/kg, po; assay type: ADME, organism-based, Canis lupus familiaris; design: dose 5 mg/kg, route oral; conditions: in vivo
[7] = Cmax in Beagle dog at 5 mg/kg, po; assay type: ADME, organism-based, Canis lupus familiaris; design: dose 5 mg/kg, route oral; conditions: in vivo
[8] = Half life in Beagle dog at 5 mg/kg, po; assay type: ADME, organism-based, Canis lupus familiaris; design: dose 5 mg/kg, route oral; conditions: in vivo
[9] = Cmax in Beagle dog at 2 mg/kg, po; assay type: ADME, organism-based, Canis lupus familiaris; design: dose 2 mg/kg, route oral; conditions: in vivo
[10] = Tmax in Beagle dog at 2 mg/kg, po; assay type: ADME, organism-based, Canis lupus familiaris; design: dose 2 mg/kg, route oral; conditions: in vivo
[11] = Half life in Beagle dog at 2 mg/kg, po; assay type: ADME, organism-based, Canis lupus familiaris; design: dose 2 mg/kg, route oral; conditions: in vivo

Row | Structure (SMILES) | IC50 [1] | IC50 [2] | Ratio [3] | further results
1 | CS(=O)(=O)c1ccc(-n2nc(C(F)(F)F)c(C#N)c2SC2CCCCC2)nc1 | 100 nM | 3200 nM | 31.2 | 
2 | CC(C)CCCSc1c(C#N)c(C(F)(F)F)nn1-c1ccc(S(C)(=O)=O)cn1 | 400 nM | 3300 nM | 8.1 | 
3 | CCCCOc1cc(C(F)(F)F)nn1-c1ccc(S(C)(=O)=O)cn1 | > 500 nM |  |  | 
4 | CS(=O)(=O)c1ccc(-n2nc(C(F)(F)F)cc2OCc2ccccc2)nc1 | > 500 nM |  |  | 
5 | C[C@@H]1CN(c2c(C#N)c(C(F)F)nn2-c2ccc(S(C)(=O)=O)cn2)C[C@H](C)O1 | 140 nM | > 50000 nM | > 357 | AUC [4]: 4830 ng·h/mL
6 | CCCSc1c(C#N)c(C(F)(F)F)nn1-c1ccc(S(C)(=O)=O)cn1 | < 50 nM | 200 nM | > 3.8 | 
7 | CCC(C)Sc1c(C#N)c(C(F)(F)F)nn1-c1ccc(S(C)(=O)=O)cn1 (stereo not drawn) | < 50 nM | 1500 nM | > 29.5 | 
8 | CCC(COC)Oc1c(C#N)c(C(F)(F)F)nn1-c1ccc(S(C)(=O)=O)cn1 (stereo not drawn) | > 500 nM |  |  | 
9 | CC(C)Oc1c(Cl)c(C(F)(F)F)nn1-c1ccc(S(C)(=O)=O)cn1 | > 500 nM |  |  | 
10 | CC(C)COc1cc(C(F)(F)F)nn1-c1ccc(S(C)(=O)=O)cn1 | 4100 nM |  |  | 
11 | CS(=O)(=O)c1ccc(-n2nc(C(F)(F)F)c(C#N)c2SCc2ccccc2)nc1 | 80 nM | 900 nM | 12.1 | 
12 | CS(=O)(=O)c1ccc(-n2nc(C(F)(F)F)cc2OCc2ccncc2)nc1 | > 500 nM |  |  | 
13 | CCC(CC)Oc1cc(C(F)(F)F)nn1-c1ccc(S(C)(=O)=O)cn1 | 19600 nM |  |  | 
14 | CS(=O)(=O)c1ccc(-n2nc(C(F)(F)F)cc2OC2CCCC2)nc1 | > 500 nM |  |  | 
15 | COc1cc(C(F)(F)F)nn1-c1ccc(S(C)(=O)=O)cn1 | > 500 nM |  |  | 
16 | CCCCCSc1c(C#N)c(C(F)(F)F)nn1-c1ccc(S(C)(=O)=O)cn1 | 300 nM | 3500 nM | 11.7 | 
17 | CS(=O)(=O)c1ccc(-n2nc(C(F)(F)F)cc2OC2CCCCC2)nc1 | > 500 nM |  |  | 
18 | CS(=O)(=O)c1ccc(-n2nc(C(F)(F)F)cc2OCC2CC2)nc1 | > 500 nM |  |  | 
19 | CCOCCSc1c(C#N)c(C(F)(F)F)nn1-c1ccc(S(C)(=O)=O)cn1 | 170 nM | 2000 nM | 11.8 | 
20 | CS(=O)(=O)c1ccc(-n2nc(C(F)(F)F)cc2OCc2cccc(F)c2)nc1 | > 500 nM |  |  | 
21 | CCC(CC)Oc1c(C)c(C(F)(F)F)nn1-c1ccc(S(C)(=O)=O)cn1 | > 500 nM |  |  | 
22 | CS(=O)(=O)c1ccc(-n2nc(C(F)(F)F)c(C#N)c2Oc2ccccc2)nc1 | > 500 nM |  |  | 
23 | Cc1c(C(F)(F)F)nn(-c2ccc(S(C)(=O)=O)cn2)c1OC(C)C | > 500 nM |  |  | 
24 | CS(=O)(=O)c1ccc(-n2nc(C(F)(F)F)c(C#N)c2SCc2ccccc2F)nc1 | 40 nM | 600 nM | 18.4 | 
25 | CC(C)Oc1cc(C(F)(F)F)nn1-c1ccc(S(C)(=O)=O)cn1 | > 500 nM |  |  | AUC [5]: 6980 ng·h/mL; Tmax [6]: 0.8 h; Cmax [7]: 679 ng/mL; half-life [8]: 34.8 h
26 | Cc1c(C(F)(F)F)nn(-c2ccc(S(C)(=O)=O)cn2)c1OCC(C)C | > 500 nM |  |  | 
27 | Cc1cccc(Oc2c(C#N)c(C(F)(F)F)nn2-c2ccc(S(C)(=O)=O)cn2)c1C | 170 nM | 100 nM | 0.3 | 
28 | CS(=O)(=O)c1ccc(-n2nc(C(F)(F)F)c(C#N)c2Sc2ccccc2)nc1 | 60 nM | 200 nM | 3.6 | 
29 | CS(=O)(=O)c1ccc(-n2nc(C(F)(F)F)c(C#N)c2Oc2cccc3c2CCCC3)nc1 | 900 nM | 100 nM | 0.1 | 
30 | CS(=O)(=O)c1ccc(-n2nc(C(F)(F)F)cc2OCc2cccc3ccccc23)nc1 | > 500 nM |  |  | 

Further lines, with some results ahead:

Row | IC50 [1] | IC50 [2] | Ratio [3] | Structure (SMILES) | further results
31 | > 500 nM |  |  | CCCC(C)Oc1c(C#N)c(C(F)(F)F)nn1-c1ccc(S(C)(=O)=O)cn1 (stereo not drawn) | 
32 | 80 nM |  |  | CS(=O)(=O)c1ccc(-n2nc(C(F)(F)F)c(C#N)c2OCC2CCC2)nc1 | 
33 | 550 nM | 25300 nM | 46.3 | CS(=O)(=O)c1ccc(-n2nc(C(F)(F)F)c(C#N)c2OC2CCC2)nc1 | 
34 | < 500 nM |  |  | CCC(CC)Oc1c(C#N)c(C(F)(F)F)nn1-c1ccc(S(C)(=O)=O)cn1 | 
35 | 200 nM | 7100 nM | 35 | CC1CCCCC1Oc1c(C#N)c(C(F)(F)F)nn1-c1ccc(S(C)(=O)=O)cn1 (stereo not drawn) | 
36 | > 500 nM |  |  | CS(=O)(=O)c1ccc(-n2nc(C(F)(F)F)c(C#N)c2OC2CCOC2)nc1 (stereo not drawn) | 
37 | 60 nM | 400 nM | 6.8 | CS(=O)(=O)c1ccc(-n2nc(C(F)(F)F)c(C#N)c2OCC2CCCC2)nc1 | 
38 | 90 nM | 11800 nM | 127 | CC(C)C(C)Oc1c(C#N)c(C(F)(F)F)nn1-c1ccc(S(C)(=O)=O)cn1 (stereo not drawn) | 
39 | 110 nM | 10000 nM | 92 | CC(C)COc1c(C#N)c(C(F)(F)F)nn1-c1ccc(S(C)(=O)=O)cn1 | 
40 | 170 nM | > 50000 nM | > 287 | CCC(Oc1c(C#N)c(C(F)(F)F)nn1-c1ccc(S(C)(=O)=O)cn1)C(C)C (stereo not drawn) | 
41 | < 90 nM | 29700 nM | 340 | C=C1CCC(COc2c(C#N)c(C(F)(F)F)nn2-c2ccc(S(C)(=O)=O)cn2)CC1 | 
42 | 140 nM | 10600 nM | 78 | CS(=O)(=O)c1ccc(-n2nc(C(F)(F)F)c(C#N)c2OCC2CC=CCC2)nc1 (stereo not drawn) | Cmax [9]: 363 ng/mL; Tmax [10]: 1 h; AUC [4]: 742 ng·h/mL; half-life [11]: 2 h
43 | 210 nM |  |  | CS(=O)(=O)c1ccc(-n2nc(C(F)(F)F)c(C#N)c2OC2CCCC2)nc1 | 
44 | 70 nM | 8000 nM | 117 | CS(=O)(=O)c1ccc(-n2nc(C(F)(F)F)c(C#N)c2OC2CCCCCC2)nc1 | 
45 | 160 nM | 7600 nM | 47 | CC1CCC(Oc2c(C#N)c(C(F)(F)F)nn2-c2ccc(S(C)(=O)=O)cn2)C1 (stereo not drawn) | 
